Laboratory results as given in US20120071516A1, “COMPOUNDS THAT MODULATE INTRACELLULAR CALCIUM” (CalciMedica, Inc., priority 2010, published 2012).

Legend:
[1] = system: RBL-2H3 cells; assay: Fluorescence-based assay of store-operated calcium entry in RBL-2H3 cells; format: cell-based; conditions: Rattus norvegicus, thapsigargin, 50% inhibition of Upslope (7 seconds after calcium addition), read-out: RBL-2H3 (IC50, μmol)
Experimental: B. Fluorescence-Based Assay of Store-Operated Calcium Entry in RBL-2H3 Cells.
RBL-2H3 cells are obtained from ATCC and maintained in complete medium with 10% FBS at 37° C./6% CO2.
The day prior to performing the assay, RBL-2H3 cells are plated in 50 μL of complete medium in a 384 well plate. Cells are grown at 37° C./6% CO2 overnight and grow to 50-60% confluence by the next day. On the assay day, 1.5 μM Fluo-4-AM dye (Invitrogen) in complete medium is added and incubated for 1 hour at RT. Cells are washed twice in Ca^2+-free HBSS buffer and 35 μL Ca^2+-free HBSS buffer is added to each well. 10 μL of a test compound prepared in a Ca^2+-free HBSS solution at 4.5× of the desired concentration is added to a well and incubated for 5 minutes at RT. 10 μL of thapsigargin prepared in a Ca^2+-free HBSS solution at 5.5× of the desired concentration (5.5 uM) is added to each well and incubated for an additional 25 minutes. The initial baseline fluorescence signal is measured with a FLIPR^384 (Molecular Devices) plate reader. 5 μL of 12× calcium in HBSS (12 mM) is added and changes in cellular fluorescence are measured with the FLIPR^384 plate reader. In each well, the change in the fluorescent signal as a function of time due to calcium entry into the cell is determined by calculating the difference between the fluorescent signal measured 7 seconds after calcium addition and the initial baseline fluorescence signal at time zero (t=0). This parameter is designated Upslope. The IC50 value is calculated as the concentration at which 50% of the Upslope is inhibited.

[2] = target: T1, Orai1/STIM1 (Homo sapiens, UniProt Q96D31); assay: Fluorescence-based assay of store-operated calcium entry in Orai1/STIM1 stable cells; format: cell-based; set-up: key to Orai1/STIM1 (IC50, μmol): A ≦ 1.0 μmol; B > 1.0 μmol; -- = no fit; conditions: HEK-293 cells stably expressing human STIM1 and Orai1, 50% inhibition of Peak-Basal fluo-4 signal, 30 minutes compound incubation; for IC50: read-out: Orai1/STIM1 (IC50, μmol)
T1 construct: c-myc (C); expressed in transfected cells
Experimental: A. Fluorescence-Based Assay of Store-Operated Calcium Entry in Orail/STIM1 Stable Cells.
Cells stably expressing recombinant human STIM1 and Orail are generated by transfecting a human Orail expression plasmid (pcDNA3.1-Orail-cmyc) into HEK-293 cells stably overexpressing human STIM1 (Roos et al. 2005 JCB 169(3): 435-445). Colonies of cells stably expressing both STIM1 and Orail proteins are selected and then subcloned by limiting dilution. Cells were cultured at 37° C./6% CO2 in complete medium with 10% FBS and appropriate selection markers.
The day prior to performing the assay Orail/STIM1 stable cells are plated in 50 μL of complete medium at 90-95% confluence in a 384 well plate. Cells are grown at 37° C./6% CO2 overnight. On the day of the assay, 1.5 μM fluo-4-AM (Invitrogen) in complete medium is added to the cells, which are then incubated for 1 hour at RT. Cells are washed once in Ca^2+-free HBSS (Hank's buffered saline solution) and 35 μl of Ca^2+-free HBSS is added to each well. Test compounds are added to wells in a 10 μL Ca^2+-free HBSS solution, prepared at 4.5× the desired final concentration, and incubated for 30 minutes at RT. The initial baseline fluorescence signal is then measured with a FLIPR^384 (Molecular Devices) plate reader. Calcium entry is initiated by adding 5 μl of 10×CaCl2 (10 mM) in HBSS, and changes in cellular fluorescence are measured with the FLIPR^384 plate reader. In each well, the magnitude of the fluorescence signal as a result of calcium entry into the cell is determined by calculating the difference between the peak fluorescence signal measured after calcium addition and the initial baseline fluorescence signal (designated Peak-Basal). IC50 values are typically calculated as the concentration that inhibited 50% of the Peak-Basal signal (Table A).

[3] = system: Jurkat cells; conditions: Jurkat cells and colon cancer cells; cited from earlier work
[4] = target: STIM1 and Orail in HEK293 cells (Homo sapiens, UniProt Q96D31); conditions: HEK293 cells co-expressing STIM1 and Orai1; cited from earlier work
Chain of STIM1 and Orail in HEK293 cells (Q96D31 whole entry): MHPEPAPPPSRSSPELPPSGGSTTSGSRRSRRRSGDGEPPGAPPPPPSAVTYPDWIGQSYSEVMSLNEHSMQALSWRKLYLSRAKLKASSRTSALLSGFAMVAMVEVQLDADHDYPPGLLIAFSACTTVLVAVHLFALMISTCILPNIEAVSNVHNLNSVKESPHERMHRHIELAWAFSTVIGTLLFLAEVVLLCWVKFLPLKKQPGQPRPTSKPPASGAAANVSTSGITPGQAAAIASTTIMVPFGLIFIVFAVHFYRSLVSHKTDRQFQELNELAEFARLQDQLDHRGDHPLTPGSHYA

T1 sequence (Q96D31 whole entry): as above

Structure (SMILES) | IC50 [1] [µM] | IC50 [2] [µM] | also measured
Cn1nc(-c2nccs2)cc1-c1ccc(C(=O)Nc2c(F)cccc2F)[se]1 | ≤ 1 | ≤ 1 | 
Cn1nc(C(F)(F)F)cc1-c1cnc(NC(=O)c2ccccc2F)[se]1 | ≤ 1 | ≤ 1 | 
Cc1cscc1-c1cnc(NC(=O)c2ccccc2F)[se]1 | ≤ 1 | > 1 | 
Cc1nc2cc(Cl)c(-c3ccc(C(=O)Nc4ccccc4F)[se]3)cc2o1 | ≤ 1 | ≤ 1 | 
Cc1ccc(Cl)cc1-c1cnc(NC(=O)c2ccccc2F)[se]1 | ≤ 1 | ≤ 1 | 
Cn1nc(-c2ccco2)cc1-c1ccc(C(=O)Nc2c(F)cccc2F)[se]1 | > 1 |  | Orai1/STIM1 (IC50, μmol) [2]: --
Cc1nnsc1C(=O)Nc1ccc(-n2nc(C(F)(F)F)cc2C(F)(F)F)cc1 [BTP-2] |  |  | inhibition of SOCE [3]: inhibits; inhibition of proliferation [3]: inhibits
Cc1ccccc1-c1cnc(NC(=O)c2ccccc2Cl)[se]1 | ≤ 1 | ≤ 1 | 
Cn1nc(C(F)(F)F)cc1-c1cnc(NC(=O)c2c(F)cccc2F)[se]1 | ≤ 1 | ≤ 1 | 
Cn1nc(-c2nccs2)cc1-c1ccc(C(=O)Nc2ccccc2F)[se]1 | ≤ 1 | ≤ 1 | 
Cn1nc(-c2ccccc2F)cc1-c1ccc(C(=O)Nc2c(F)cccc2F)[se]1 | ≤ 1 | ≤ 1 | 
O=C(Nc1ccncc1F)c1ccc(-c2cc(C(F)(F)F)ccc2Cl)[se]1 | > 1 | > 1 | 
Cn1nc(C(F)(F)F)cc1-c1ccc(C(=O)Nc2ccncc2F)[se]1 | ≤ 1 | ≤ 1 | 
Cn1nc(-c2ccco2)cc1-c1ccc(C(=O)Nc2ccccc2F)[se]1 | ≤ 1 | ≤ 1 | 
Cn1nc(-c2ccccc2F)cc1-c1cnc(NC(=O)c2ccccc2F)[se]1 | ≤ 1 | > 1 | 
Cc1cc2scnc2cc1-c1ccc(C(=O)Nc2c(F)cccc2F)[se]1 | ≤ 1 | ≤ 1 | 
Cn1nc(-c2ccccc2F)cc1-c1ccc(C(=O)Nc2ccncc2F)[se]1 | ≤ 1 | ≤ 1 | 
Cc1ccccc1-c1cnc(NC(=O)c2ccccc2F)[se]1 | ≤ 1 | ≤ 1 | 

Structure (SMILES) | IC50 [1] [µM] | IC50 [2] [µM] | also measured
Cn1nc(-c2ccccc2F)cc1-c1ccc(C(=O)Nc2ccccc2F)[se]1 | ≤ 1 | ≤ 1 | 
Cn1nc(-c2nccs2)cc1-c1ccc(C(=O)Nc2ccncc2F)[se]1 | ≤ 1 | ≤ 1 | 
O=C(Nc1[se]cc(-c2ccc(Cl)cc2)c1C(=O)O)c1nc2ccccc2s1 | > 1 | > 1 | 
O=C(Nc1[se]cc(-c2ccc(Br)cc2)c1C(=O)O)c1nc2ccccc2s1 | ≤ 1 | > 1 | 
O=C(Nc1[se]cc(-c2ccc(Br)cc2)c1C(=O)O)c1cc2ccccc2o1 | ≤ 1 | ≤ 1 | 
Cc1ccccc1-c1cnc(NC(=O)c2c(F)cccc2F)[se]1 | ≤ 1 | ≤ 1 | 
CCn1nc(C(F)(F)F)cc1-c1cnc(NC(=O)c2ccccc2F)[se]1 | ≤ 1 | ≤ 1 | 
Cc1ccc(F)cc1-c1cnc(NC(=O)c2ccccc2F)[se]1 | ≤ 1 | ≤ 1 | 
Cn1nc(-c2ccco2)cc1-c1ccc(C(=O)Nc2ccncc2F)[se]1 | ≤ 1 | ≤ 1 | 
Cc1cc(OC(F)(F)F)ccc1-c1cnc(NC(=O)c2c(F)cccc2F)[se]1 | ≤ 1 |  | Orai1/STIM1 (IC50, μmol) [2]: --
Cc1cc2c(cc1-c1cnc(NC(=O)c3ccccc3F)[se]1)OC(F)(F)O2 | ≤ 1 | ≤ 1 | 
O=C(Nc1ncc(-c2ccccc2C(F)(F)F)[se]1)c1ccccc1F | ≤ 1 | ≤ 1 | 
Cn1nc(C(F)(F)F)cc1-c1ccc(C(=O)Nc2c(F)cccc2F)[se]1 | ≤ 1 | ≤ 1 | 
Cn1nc(C(F)(F)F)cc1-c1ccc(C(=O)Nc2ccccc2F)[se]1 | ≤ 1 | ≤ 1 | 
Cc1cc2c(cc1-c1cnc(NC(=O)c3c(F)cccc3F)[se]1)OC(F)(F)O2 | ≤ 1 | > 1 | 
NCCOB(c1ccccc1)c1ccccc1 [2-aminoethoxydiphenylborate] |  |  | block of store-operated Ca2+ entry [4]: completely blocked
Cn1nc(C(F)(F)F)cc1-c1cnc(NC(=O)c2ccccc2Cl)[se]1 | ≤ 1 | ≤ 1 | 
Cc1cc(OC(F)(F)F)ccc1-c1cnc(NC(=O)c2ccccc2F)[se]1 | ≤ 1 | ≤ 1 | 
